From ChEMBL document CHEMBL3885881, “DrugMatrix”

Species: Rattus norvegicus
Assay: DrugMatrix - Regimen: Daily Repeat
Type: toxicity, organism-based, Sprague-Dawley
Parameters: regimen Daily Repeat, gender Male, age 6-8 weeks
Settings: in vivo, po, route oral GAVAGE, vehicle .5 % CMC; for ABSOLUTE BASOPHIL / ABSOLUTE EOSINOPHIL / ABSOLUTE LYMPHOCYTE / ABSOLUTE MONOCYTE / ABSOLUTE SEGMENTED NEUTROPHIL / BASOPHIL / EOSINOPHIL / ERYTHROCYTE COUNT / HEMATOCRIT / HEMOGLOBIN / LEUKOCYTE COUNT / LYMPHOCYTE / MEAN CORPUSCULAR HEMOGLOBIN / MEAN CORPUSCULAR HEMOGLOBIN CONCENTRATION / MEAN CORPUSCULAR VOLUME / MONOCYTE / NEUTROPHIL / NUCLEATED RED BLOOD CELLS / PLATELET COUNT: tissue Blood; for ALANINE AMINOTRANSFERASE / ALBUMIN / ALKALINE PHOSPHATASE / ASPARTATE AMINOTRANSFERASE / BLOOD UREA NITROGEN / CARBON DIOXIDE / CHLORIDE / CHOLESTEROL / CREATINE PHOSPHOKINASE / CREATININE / GLUCOSE / LACTATE DEHYDROGENASE / LIPASE / PHOSPHORUS / POTASSIUM / SODIUM / TOTAL BILIRUBIN / TOTAL PROTEIN / URIC ACID: tissue Plasma
[1] = 75 mg/kg, 120 h, dose level High, time 5 day
[2] = […], 72 h, dose 7.5 mg/Kg, dose level Low, time 3 day
[3] = […], 120 h, dose 7.5 mg/Kg, dose level Low, time 5 day

Cc1ccc(/N=C/N(C)/C=N/c2ccc(C)cc2C)c(C)c1 [AMITRAZ]
ABSOLUTE BASOPHIL [1]: 0 CELLS/uL
ABSOLUTE EOSINOPHIL [1]: 78.67 CELLS/uL
ABSOLUTE LYMPHOCYTE [1]: 10570.33 CELLS/uL
ABSOLUTE MONOCYTE [1]: 41.33 CELLS/uL
ABSOLUTE SEGMENTED NEUTROPHIL [1]: 1409.67 CELLS/uL
BASOPHIL [1]: 0%
EOSINOPHIL [1]: 0.67%
ERYTHROCYTE COUNT [1]: 6.55 x10E6/uL
HEMATOCRIT [1]: 40.27%
HEMOGLOBIN [1]: 16.2 G/DL
LEUKOCYTE COUNT [1]: 12.1 x10E3/uL
LYMPHOCYTE [1]: 87.33%
MEAN CORPUSCULAR HEMOGLOBIN [1]: 24.73 pg
MEAN CORPUSCULAR HEMOGLOBIN CONCENTRATION [1]: 40.2 G/DL
MEAN CORPUSCULAR VOLUME [1]: 61.53 fL
MONOCYTE [1]: 0.33%
NEUTROPHIL [1]: 11.67%
NUCLEATED RED BLOOD CELLS [1]: 0 /100WBC
PLATELET COUNT [1]: 1330 x10E3/uL
ALANINE AMINOTRANSFERASE [1]: 42.33 u/L
ALBUMIN [1]: 4.3 G/DL
ALKALINE PHOSPHATASE [1]: 203.33 u/L
ASPARTATE AMINOTRANSFERASE [1]: 91.33 u/L
BLOOD UREA NITROGEN [1]: 18.67 mg/dL
CARBON DIOXIDE [1]: 21.67 mmol/L
CHLORIDE [1]: 104.33 MEQ/L
CHOLESTEROL [1]: 74 mg/dL
CREATINE PHOSPHOKINASE [1]: 460.67 u/L
CREATININE [1]: 0.26 mg/dL
GLUCOSE [1]: 172 mg/dL
LACTATE DEHYDROGENASE [1]: 250.67 u/L
LIPASE [1]: 11.67 u/L
PHOSPHORUS [1]: 15.2 mg/dL
POTASSIUM [1]: 7.47 MEQ/L
SODIUM [1]: 148.4 MEQ/L
TOTAL BILIRUBIN [1]: 0.2 mg/dL
TOTAL PROTEIN [1]: 6.17 G/DL
URIC ACID [1]: 2.83 mg/dL
ABSOLUTE BASOPHIL [2]: 0 CELLS/uL
ABSOLUTE EOSINOPHIL [2]: 136 CELLS/uL
ABSOLUTE LYMPHOCYTE [2]: 19510 CELLS/uL
ABSOLUTE MONOCYTE [2]: 209.33 CELLS/uL
ABSOLUTE SEGMENTED NEUTROPHIL [2]: 1444.67 CELLS/uL
BASOPHIL [2]: 0%
EOSINOPHIL [2]: 0.67%
ERYTHROCYTE COUNT [2]: 5.3 x10E6/uL
HEMATOCRIT [2]: 33.37%
HEMOGLOBIN [2]: 13.33 G/DL
LEUKOCYTE COUNT [2]: 21.3 x10E3/uL
LYMPHOCYTE [2]: 91.33%
MEAN CORPUSCULAR HEMOGLOBIN [2]: 25.17 pg
MEAN CORPUSCULAR HEMOGLOBIN CONCENTRATION [2]: 39.97 G/DL
MEAN CORPUSCULAR VOLUME [2]: 63.07 fL
MONOCYTE [2]: 1%
NEUTROPHIL [2]: 7%
NUCLEATED RED BLOOD CELLS [2]: 0.33 /100WBC
PLATELET COUNT [2]: 1400.67 x10E3/uL
ALANINE AMINOTRANSFERASE [2]: 46.33 u/L
ALBUMIN [2]: 4.13 G/DL
ALKALINE PHOSPHATASE [2]: 272 u/L
ASPARTATE AMINOTRANSFERASE [2]: 87.67 u/L
BLOOD UREA NITROGEN [2]: 17.33 mg/dL
CARBON DIOXIDE [2]: 25.33 mmol/L
CHLORIDE [2]: 103.33 MEQ/L
CHOLESTEROL [2]: 75.67 mg/dL
CREATINE PHOSPHOKINASE [2]: 199.33 u/L
CREATININE [2]: 0.22 mg/dL
GLUCOSE [2]: 185.67 mg/dL
LACTATE DEHYDROGENASE [2]: 127 u/L
LIPASE [2]: 8.67 u/L
PHOSPHORUS [2]: 11.97 mg/dL
POTASSIUM [2]: 6.06 MEQ/L
SODIUM [2]: 144.17 MEQ/L
TOTAL BILIRUBIN [2]: 0.23 mg/dL
TOTAL PROTEIN [2]: 5.7 G/DL
URIC ACID [2]: 2.07 mg/dL
ABSOLUTE BASOPHIL [3]: 0 CELLS/uL
ABSOLUTE EOSINOPHIL [3]: 0 CELLS/uL
ABSOLUTE LYMPHOCYTE [3]: 13348 CELLS/uL
ABSOLUTE MONOCYTE [3]: 98 CELLS/uL
ABSOLUTE SEGMENTED NEUTROPHIL [3]: 1187.33 CELLS/uL
BASOPHIL [3]: 0%
EOSINOPHIL [3]: 0%
ERYTHROCYTE COUNT [3]: 5.41 x10E6/uL
HEMATOCRIT [3]: 34.03%
HEMOGLOBIN [3]: 13.6 G/DL
LEUKOCYTE COUNT [3]: 14.63 x10E3/uL
LYMPHOCYTE [3]: 91.33%
MEAN CORPUSCULAR HEMOGLOBIN [3]: 25.17 pg
MEAN CORPUSCULAR HEMOGLOBIN CONCENTRATION [3]: 39.93 G/DL
MEAN CORPUSCULAR VOLUME [3]: 63.03 fL
MONOCYTE [3]: 0.67%
NEUTROPHIL [3]: 8%
NUCLEATED RED BLOOD CELLS [3]: 0.33 /100WBC
PLATELET COUNT [3]: 1467.33 x10E3/uL
ALANINE AMINOTRANSFERASE [3]: 52.67 u/L
ALBUMIN [3]: 4.13 G/DL
ALKALINE PHOSPHATASE [3]: 370.67 u/L
ASPARTATE AMINOTRANSFERASE [3]: 78.67 u/L
BLOOD UREA NITROGEN [3]: 18 mg/dL
CARBON DIOXIDE [3]: 30.67 mmol/L
CHLORIDE [3]: 99.67 MEQ/L
CHOLESTEROL [3]: 63 mg/dL
CREATINE PHOSPHOKINASE [3]: 265.67 u/L
CREATININE [3]: 0.18 mg/dL
GLUCOSE [3]: 137.33 mg/dL
LACTATE DEHYDROGENASE [3]: 130 u/L
LIPASE [3]: 9 u/L
PHOSPHORUS [3]: 11.77 mg/dL
POTASSIUM [3]: 6.67 MEQ/L
SODIUM [3]: 143.1 MEQ/L
TOTAL BILIRUBIN [3]: 0.2 mg/dL
TOTAL PROTEIN [3]: 5.9 G/DL
URIC ACID [3]: 1.83 mg/dL
